Experimental data as given in article PMC11649115, “In vitro safety evaluation of dopamine D3R antagonist, R-VK4-116, as a potential medication for the treatment of opioid use disorder” (PLOS ONE, 2024).
Where “and” joins values, the source holds several entries; their conditions need not be identical. Equal values may be shown once. Read-outs that look alike come from different tables or passages of the source.

What was measured:
human hepatocytes = assay: MTT assay, hepatocyte viability; format: cell-based
MATE2-K = molecular target: T1, MATE2-K (Homo sapiens, UniProt Q86VL8); assay: Transporter mediated assay (substrate/inhibitor), MDCK-II cells; format: in vitro ADME
T1 construct: expressed in transfected cells; host or cells: MDCK-II cells
Description: The MDCK-II cells were treated to express the transporter of interest. […] For the uptake assay, the net transporter-mediated uptake-rate (V) of the substrate by each SLC transporter was calculated as follows: Transporter–mediatedupdaterate(pmol/min/cm^2)=(Cellularaccumulationincellsexpressingthetransporter)−(Meancellularaccumulationincontrolcells)/Surfacearea×incubationtime
Fold of activity and percent inhibition were determined as follows: Foldofactivity=(Meanuptakerate)transporterexpressingcells/(Meanuptakerate)controlcells Percentinhibition=100−100×(Transport‐mediatedupdaterate)withinhibitor/(Transport‐mediatedupdaterate)vehiclecontrol

HepG2 cells = assay: Cytotoxicity MTT assay in HepG2; format: cell-based; conditions: 72-hr, 10 to 100 μM
Kir2.1 = molecular target: T2, Kir2.1 (Homo sapiens, UniProt P63252); assay: CiPA IonChannelProfiler Cardiac Panel, QPatch; format: cell-based; conditions: Kir2.1, 100 μM
T2 sequence (P63252 1-427): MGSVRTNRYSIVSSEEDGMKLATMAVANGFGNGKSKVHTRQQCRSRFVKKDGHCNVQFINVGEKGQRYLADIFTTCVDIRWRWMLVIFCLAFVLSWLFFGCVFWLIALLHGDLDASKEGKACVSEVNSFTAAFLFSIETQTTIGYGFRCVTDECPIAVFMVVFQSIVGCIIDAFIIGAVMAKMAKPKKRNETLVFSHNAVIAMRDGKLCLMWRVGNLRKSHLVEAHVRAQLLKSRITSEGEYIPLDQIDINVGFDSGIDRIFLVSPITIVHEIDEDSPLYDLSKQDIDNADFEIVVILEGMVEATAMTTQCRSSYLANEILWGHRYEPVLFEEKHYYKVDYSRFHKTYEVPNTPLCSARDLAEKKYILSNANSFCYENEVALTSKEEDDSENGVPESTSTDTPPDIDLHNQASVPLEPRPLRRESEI

HPK1 = molecular target: T3, HPK1 (Homo sapiens, UniProt Q92918); assay: KINOMEscan binding (% Ctrl, Kd)
T3 construct: made in house; host or cells: E. coli BL21-derived host (T7 phage) or HEK-293
Description: Briefly, E. coli host derived from the BL21 strain were grown to log-phase and infected with kinase-tagged T7 phage and incubated with shaking at 32°C until lysis. The lysates were centrifuged and filtered to remove cell debris. The remaining kinases were produced in HEK-293 cells and subsequently tagged with DNA for qPCR detection. Streptavidin-coated magnetic beads were treated with biotinylated small molecule ligands to generate affinity resins for kinase assays. The liganded beads were blocked with excess biotin and washed to remove unbound ligand and to reduce non-specific phage binding. […] Selectivity Score (S-score) was a quantitative measure of compound selectivity. […] The binding constants (Kds) were also determined with a standard dose-response curve using the Hill equation and Levenberg-Marquardt algorithm [24, 25].

[1] = Plasma protein binding, Sephadex G-25 gel filtration; format: in vitro ADME, human; conditions: human, plasma; for fraction unbound at 2 h, 0.5 μM: human plasma, nominal 0.5 μM
Description: (§1) The gel filtration used solid-phase extraction columns containing hydrated gel filtration beads (Sephadex G-25). […] In this method, the amount of analyte accompanying the proteins (i.e., protein-bound R-VK4-116) before and after filtration was assayed for analyte concentration by LC-MS/MS.

human plasma proteins = assay: as above; format: in vitro ADME; conditions: human plasma
Description: as §1

plasma proteins = assay: as above; format: in vitro ADME, human; conditions: human, plasma, human plasma, nominal 1 μM; read-out: % Bound, Mean ± SD (converted)
Description: as §1

CYP3A4 = CYP3A4 (Homo sapiens, UniProt P08684); assay: in vitro; conditions: microsomes
CYP2B6 = assay: CYP induction, in situ catalytic activity, human hepatocytes
Description: Rifampicin as a positive control and solvent (0.1% DMSO) vehicle control were also included. The acceptance criteria for CYP induction was ≥ 2-fold induction for significant CYP activity, while the acceptance criteria for CYP mRNA was ≥ 4-fold for significant CYP induction.

[2] = CYP activity (% of Control) 3A4 (Midazolam)
[3] = CYP activity (% of Control) 3A4 (Testosterone)

T3 sequence (Q92918 whole entry): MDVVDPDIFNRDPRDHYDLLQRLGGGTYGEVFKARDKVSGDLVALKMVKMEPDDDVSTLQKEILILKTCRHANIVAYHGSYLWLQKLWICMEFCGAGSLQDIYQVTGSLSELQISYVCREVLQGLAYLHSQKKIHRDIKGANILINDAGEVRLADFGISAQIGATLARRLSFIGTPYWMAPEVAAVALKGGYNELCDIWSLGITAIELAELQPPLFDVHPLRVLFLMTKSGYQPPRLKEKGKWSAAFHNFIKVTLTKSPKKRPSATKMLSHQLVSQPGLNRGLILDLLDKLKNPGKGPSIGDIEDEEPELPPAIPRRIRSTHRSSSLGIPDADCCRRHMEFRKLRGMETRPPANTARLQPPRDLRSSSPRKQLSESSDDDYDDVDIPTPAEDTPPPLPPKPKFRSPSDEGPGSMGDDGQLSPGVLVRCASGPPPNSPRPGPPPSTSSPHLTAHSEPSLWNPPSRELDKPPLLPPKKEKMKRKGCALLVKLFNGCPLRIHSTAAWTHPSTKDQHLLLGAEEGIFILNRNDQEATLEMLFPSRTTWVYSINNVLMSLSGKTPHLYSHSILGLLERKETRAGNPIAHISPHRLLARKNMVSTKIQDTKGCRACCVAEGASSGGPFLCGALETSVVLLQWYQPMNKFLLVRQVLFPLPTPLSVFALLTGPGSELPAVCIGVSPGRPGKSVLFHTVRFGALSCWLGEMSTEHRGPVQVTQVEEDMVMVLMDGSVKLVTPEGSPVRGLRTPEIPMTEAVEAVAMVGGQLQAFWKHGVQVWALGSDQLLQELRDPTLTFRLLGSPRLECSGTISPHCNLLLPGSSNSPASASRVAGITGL
CYP3A4, sequence (P08684 2-503): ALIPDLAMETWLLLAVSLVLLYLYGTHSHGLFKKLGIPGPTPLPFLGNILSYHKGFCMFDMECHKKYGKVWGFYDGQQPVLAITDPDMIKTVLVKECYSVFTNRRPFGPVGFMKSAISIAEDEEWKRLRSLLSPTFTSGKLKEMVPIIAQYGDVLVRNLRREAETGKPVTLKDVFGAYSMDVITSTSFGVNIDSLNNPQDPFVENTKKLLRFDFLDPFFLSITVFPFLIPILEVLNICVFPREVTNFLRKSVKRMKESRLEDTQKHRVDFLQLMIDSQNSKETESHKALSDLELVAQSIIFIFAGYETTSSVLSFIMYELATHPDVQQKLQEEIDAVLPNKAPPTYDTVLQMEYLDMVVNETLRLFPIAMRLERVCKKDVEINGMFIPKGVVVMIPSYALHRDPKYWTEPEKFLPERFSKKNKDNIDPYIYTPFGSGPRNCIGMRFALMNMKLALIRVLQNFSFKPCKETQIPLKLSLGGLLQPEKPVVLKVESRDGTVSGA
T1 sequence (Q86VL8 1-566 isoform Q86VL8-3): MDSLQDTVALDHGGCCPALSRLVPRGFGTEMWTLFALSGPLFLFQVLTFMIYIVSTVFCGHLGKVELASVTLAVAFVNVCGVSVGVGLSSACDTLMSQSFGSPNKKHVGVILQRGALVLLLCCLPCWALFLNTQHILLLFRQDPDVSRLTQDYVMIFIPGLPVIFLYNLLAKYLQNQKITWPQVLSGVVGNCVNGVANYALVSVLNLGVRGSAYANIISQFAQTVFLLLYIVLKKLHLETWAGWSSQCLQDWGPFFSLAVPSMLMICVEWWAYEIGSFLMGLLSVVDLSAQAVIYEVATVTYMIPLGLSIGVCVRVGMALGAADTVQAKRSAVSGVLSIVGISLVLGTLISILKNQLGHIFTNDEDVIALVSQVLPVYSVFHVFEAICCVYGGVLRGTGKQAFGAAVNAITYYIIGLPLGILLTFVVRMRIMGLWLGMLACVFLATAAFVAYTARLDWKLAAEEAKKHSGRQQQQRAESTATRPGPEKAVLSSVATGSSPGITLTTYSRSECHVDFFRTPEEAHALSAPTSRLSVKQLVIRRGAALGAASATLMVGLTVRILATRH

Compound: CCc1cc(Cl)c(OC)c(N2CCN(CC(O)CCNC(=O)c3cc4ccccc4[nH]3)CC2)c1 (stereo not drawn) [R-VK4-116, N-(4-(4-(3-chloro-5-ethyl-2-methoxyphenyl)piperazin-1-yl)-3-hydroxybutyl)-1H-indole-2-carboxamide]
- Hepatocyte Viability, MTT Assay Upfront (Mean) (human hepatocytes; 0.01 µM): 93
- Hepatocyte Viability, MTT Assay Upfront (Mean) (human hepatocytes; 0.1 µM): 105
- Hepatocyte Viability, MTT Assay Upfront (Mean) (human hepatocytes; 1 µM): 86
- Hepatocyte Viability, MTT Assay Upfront (Mean) (human hepatocytes; 3 µM): 91
- Hepatocyte Viability, MTT Assay Upfront (Mean) (human hepatocytes; 10 μM): 73
- Hepatocyte Viability, MTT Assay Upfront (Mean) (human hepatocytes; 30 µM): 73
- Hepatocyte Viability, Concurrent MTT Assay (Mean) (human hepatocytes; Lot 336, 0.01 µM): 96
- Hepatocyte Viability, Concurrent MTT Assay (Mean) (human hepatocytes; Lot 336, 0.10 µM): 90
- Hepatocyte Viability, Concurrent MTT Assay (Mean) (human hepatocytes; Lot 336, 1 µM): 91
- Hepatocyte Viability, Concurrent MTT Assay (Mean) (human hepatocytes; Lot 336, 3 µM): 80
- Hepatocyte Viability, Concurrent MTT Assay (Mean) (human hepatocytes; Lot 336, 5 µM): 75
- Hepatocyte Viability, Concurrent MTT Assay (Mean) (human hepatocytes; Lot 336, 10 µM): 73
- Hepatocyte Viability, Concurrent MTT Assay (Mean) (human hepatocytes; Lot 348B, 0.01 µM): 100
- Hepatocyte Viability, Concurrent MTT Assay (Mean) (human hepatocytes; Lot 348B, 0.10 µM): 101
- Hepatocyte Viability, Concurrent MTT Assay (Mean) (human hepatocytes; Lot 348B, 1 µM): 104
- Hepatocyte Viability, Concurrent MTT Assay (Mean) (human hepatocytes; Lot 348B, 3 µM): 96
- Hepatocyte Viability, Concurrent MTT Assay (Mean) (human hepatocytes; Lot 348B, 5 µM): 97
- Hepatocyte Viability, Concurrent MTT Assay (Mean) (human hepatocytes; Lot 348B, 10 µM): 102
- Hepatocyte Viability, Concurrent MTT Assay (Mean) (human hepatocytes; Lot 399, 0.01 µM): 107
- Hepatocyte Viability, Concurrent MTT Assay (Mean) (human hepatocytes; Lot 399, 0.10 µM): 104
- Hepatocyte Viability, Concurrent MTT Assay (Mean) (human hepatocytes; Lot 399, 1 µM): 95
- Hepatocyte Viability, Concurrent MTT Assay (Mean) (human hepatocytes; Lot 399, 3 µM): 88
- Hepatocyte Viability, Concurrent MTT Assay (Mean) (human hepatocytes; Lot 399, 5 µM): 86
- Hepatocyte Viability, Concurrent MTT Assay (Mean) (human hepatocytes; Lot 399, 10 µM): 91
- hepatocyte viability, concurrent MTT assay (human hepatocytes; ≤ 10 μM): no decrease of hepatocyte viability
- fold difference in mean uptake rate (substrate test) (MATE2-K; 1 μM, transporter cells vs control cells): < 2 fold
- inhibition at 10 µM (MATE2-K; human, polarized monolayer of MDCK-II cells expressing MATE2-K, 0.1% BSA, 10 μM): 37.8 ± 9.26%
- decrease in HepG2 cell viability compared with the solvent control (MTT) (HepG2 cells): 40–50%
- inhibition at 100 µM (Kir2.1; read-out: inhibition, End): 97.2%
- inhibition at 100 µM (Kir2.1; read-out: inhibition, Peak): 52.6%
- Kd (HPK1; 11-point curve 0.001 to 10 μM, read-out: binding constant (Kd)): > 10 µM
- remaining binding at 1 µM (HPK1; read-out: %Control): < 35%
- remaining binding at 1 µM (HPK1; read-out: Gene (S-score with % control): HPK1): 29%
- fraction unbound at 2 h, 0.5 μM ([1]; read-out: % Bound (converted)): 0.026
- fraction unbound at 2 h, 0.5 μM ([1]; read-out: % Bound, Mean ± SD (converted)): 0.028
- fraction unbound at 2 h ([1]; rat, dog, range over human, rat and dog plasma, read-out: bound to plasma proteins): 0.07 to 0.17
- % Bound (human plasma proteins; nominal 0.5 μM): 96.9%
- Ratio [R-VK4-116] Before Filtration / Eluate, Mean ± SD (human plasma proteins; nominal 0.5 μM): 0.988 ± 0.13
- [R-VK4-116] Before Filtration (human plasma proteins; nominal 0.5 μM): 0.550 µM and 0.597 µM and 0.598 µM
- [R-VK4-116] In Sephadex G-25 Eluate (human plasma proteins; nominal 0.5 μM): 0.520 µM and 0.715 µM and 0.557 µM
- % Bound (human plasma proteins; nominal 1 μM): 92.5% and 81.6% and 83.7%
- Ratio [R-VK4-116] Before Filtration / Eluate (human plasma proteins; nominal 1 μM): 1.50 and 1.62 and 1.55
- Ratio [R-VK4-116] Before Filtration / Eluate, Mean ± SD (human plasma proteins; nominal 1 μM): 1.56 ± 0.06
- [R-VK4-116] Before Filtration (human plasma proteins; nominal 1 μM): 0.923 µM and 0.995 µM and 1.02 µM
- [R-VK4-116] In Sephadex G-25 Eluate (human plasma proteins; nominal 1 μM): 0.614 µM and 0.615 µM and 0.657 µM
- fraction unbound at 2 h, 1 μM (plasma proteins): 0.141
- activity at 20 min, 0.1 µM (CYP3A4; [2]): 97.5 ± 3.9%
- activity at 20 min, 0.3 µM (CYP3A4; [2]): 93.9 ± 2.4%
- activity at 20 min, 1 µM (CYP3A4; [2]): 95.3 ± 0.9%
- activity at 20 min, 3 µM (CYP3A4; [2]): 95.6 ± 4.2%
- activity at 20 min, 10 µM (CYP3A4; [2]): 96.9 ± 2%
- activity at 20 min, 30 µM (CYP3A4; [2]): 92.2 ± 0.7%
- activity at 20 min, 60 µM (CYP3A4; [2]): 92.6 ± 1%
- activity at 20 min, 100 µM (CYP3A4; [2]): 96.9 ± 3.2%
- activity at 20 min, 0.1 µM (CYP3A4; [3]): 96.5 ± 3.6%
- activity at 20 min, 0.3 µM (CYP3A4; [3]): 93.2 ± 3.8%
- activity at 20 min, 1 µM (CYP3A4; [3]): 94.2 ± 2.4%
- activity at 20 min, 3 µM (CYP3A4; [3]): 92.8 ± 4.8%
- activity at 20 min, 10 µM (CYP3A4; [3]): 93.9 ± 2.1%
- activity at 20 min, 30 µM (CYP3A4; [3]): 94.2 ± 1.5%
- activity at 20 min, 60 µM (CYP3A4; [3]): 92.1 ± 1.1%
- activity at 20 min, 100 µM (CYP3A4; [3]): 95.5 ± 3.7%
- Fold of Vehicle Control (CYP2B6 activity, bupropion hydroxylation) (CYP2B6; hepatocyte Lot 336, 0.01 µM): 1.2 fold
- Fold of Vehicle Control (CYP2B6 activity, bupropion hydroxylation) (CYP2B6; hepatocyte Lot 336, 0.1 µM): 1.1 fold
- Fold of Vehicle Control (CYP2B6 activity, bupropion hydroxylation) (CYP2B6; hepatocyte Lot 336, 1 µM): 1.1 fold
- Fold of Vehicle Control (CYP2B6 activity, bupropion hydroxylation) (CYP2B6; hepatocyte Lot 336, 3 µM): 1.1 fold
- Fold of Vehicle Control (CYP2B6 activity, bupropion hydroxylation) (CYP2B6; hepatocyte Lot 336, 5 µM): 1.1 fold
- Bupropion Hydroxylation (CYP2B6; hepatocyte Lot 336, 10 µM): 0.97 pmol/min/106 cells
- Fold of Vehicle Control (CYP2B6 activity, bupropion hydroxylation) (CYP2B6; hepatocyte Lot 336, 10 µM): 1.1 fold
- Bupropion Hydroxylation (CYP2B6; hepatocyte Lot 348B, 0.01 µM): 5.0 pmol/min/106 cells
- Fold of Vehicle Control (CYP2B6 activity, bupropion hydroxylation) (CYP2B6; hepatocyte Lot 348B, 0.01 µM): 1.1 fold
- Bupropion Hydroxylation (CYP2B6; hepatocyte Lot 348B, 0.1 µM): 4.5 pmol/min/106 cells
- Fold of Vehicle Control (CYP2B6 activity, bupropion hydroxylation) (CYP2B6; hepatocyte Lot 348B, 0.1 µM): 1.0 fold
- Bupropion Hydroxylation (CYP2B6; hepatocyte Lot 348B, 1 µM): 4.5 pmol/min/106 cells
- Fold of Vehicle Control (CYP2B6 activity, bupropion hydroxylation) (CYP2B6; hepatocyte Lot 348B, 1 µM): 1.0 fold
- Bupropion Hydroxylation (CYP2B6; hepatocyte Lot 348B, 3 µM): 4.1 pmol/min/106 cells
- Fold of Vehicle Control (CYP2B6 activity, bupropion hydroxylation) (CYP2B6; hepatocyte Lot 348B, 3 µM): 0.94 fold
- Bupropion Hydroxylation (CYP2B6; hepatocyte Lot 348B, 5 µM): 3.8 pmol/min/106 cells
- Fold of Vehicle Control (CYP2B6 activity, bupropion hydroxylation) (CYP2B6; hepatocyte Lot 348B, 5 µM): 0.85 fold
- Bupropion Hydroxylation (CYP2B6; hepatocyte Lot 348B, 10 µM): 3.9 pmol/min/106 cells
- Fold of Vehicle Control (CYP2B6 activity, bupropion hydroxylation) (CYP2B6; hepatocyte Lot 348B, 10 µM): 0.89 fold
- Fold of Vehicle Control (CYP2B6 activity, bupropion hydroxylation) (CYP2B6; hepatocyte Lot 399, 0.01 µM): 1.0 fold
- Fold of Vehicle Control (CYP2B6 activity, bupropion hydroxylation) (CYP2B6; hepatocyte Lot 399, 0.1 µM): 1.0 fold
- Fold of Vehicle Control (CYP2B6 activity, bupropion hydroxylation) (CYP2B6; hepatocyte Lot 399, 1 µM): 1.1 fold
- Fold of Vehicle Control (CYP2B6 activity, bupropion hydroxylation) (CYP2B6; hepatocyte Lot 399, 3 µM): 1.2 fold
- Fold of Vehicle Control (CYP2B6 activity, bupropion hydroxylation) (CYP2B6; hepatocyte Lot 399, 5 µM): 1.1 fold
- Fold of Vehicle Control (CYP2B6 activity, bupropion hydroxylation) (CYP2B6; hepatocyte Lot 399, 10 µM): 1.1 fold
